By IC50 is commonly meant the concentration that inhibits the measured activity by half.

For one data set, the system named is folate receptor-positive KB cells. In words: In vitro concentration-dependent cytotoxic activity (3H-thymidine incorporation). It counts as cell-based. As to conditions: Homo sapiens, KB, read-out: Cytotoxicity IC50 (nM). How it is done:
The compounds described herein are evaluated using an in vitro cytotoxicity assay that predicts the ability of the drug to inhibit the growth of folate receptor-positive KB cells. The KB cells are exposed for up to 7 h at 37° C. over a range of concentrations of folate-drug conjugate in the absence or presence of at least a 100-fold excess of folic acid. The cells are then rinsed once with fresh culture medium and incubated in fresh culture medium for 72 hours at 37° C. Cell viability is assessed using a ^3H-thymidine incorporation assay.
Cells were heavily seeded in 24-well Falcon plates and allowed to form nearly confluent monolayers overnight. Thirty minutes prior to the addition of test article, spent medium was aspirated from all wells and replaced with fresh folate-free RPMI (FFRPMI). Note, designated wells received media containing 100 μM folic acid; and, cells within the latter wells were used to determine the targeting specificity, since cytotoxic activity produced in the presence of excess folic acid (enables competition for FR binding) would signify the portion of the total activity that was unrelated to FR-specific delivery. Following one rinse with 1 mL of fresh FFRPMI containing 10% heat-inactivated fetal calf serum, each well received 1 mL of media containing increasing concentrations of test article (4 wells per sample) in the presence or absence of 100 μM free folic acid (a binding site competitor). Treated cells were pulsed for 2 h at 37° C., rinsed 4 times with 0.5 mL of media, and then chased in 1 mL of fresh media up to 70 h. Spent media was aspirated from all wells and replaced with fresh media containing 5 μCi/mL ^3H-thymidine. Following a further 2 h 37° C. incubation, cells were washed 3 times with 0.5 mL of PBS and then treated with 0.5 mL of ice-cold 5% trichloroacetic acid per well. After 15 min, the trichloroacetic acid was aspirated and the cell material solubilized by the addition of 0.5 mL of 0.25 N sodium hydroxide for 15 min. Four hundred and fifty μL of each solubilized sample were transferred to scintillation vials containing 3 mL of Ecolume scintillation cocktail and then counted in a liquid scintillation counter. Final results are expressed as the percentage of ^3H-thymidine incorporation relative to untreated controls.
As shown in the following table, dose-dependent cytotoxicity is measurable, and in most cases, the IC50 values (concentration of drug conjugate required to reduce ^3H-thymidine incorporation into newly synthesized DNA by 50%) are in the low nanomolar range.
In general terms: Incorporation of labelled thymidine or its analogues reports DNA synthesis.
For the compound `C=CCCN(C(=O)[C@@H](NC(=O)[C@H]1CCCCN1C)C(C)CC)[C@H](C[C@@H](OC(C)=O)c1nc(C(=O)N[C@@H](Cc2ccc(O)cc2)C[C@H](C)C(=O)O)cs1)C(C)C` (stereo partly drawn) [EC0550, N-Homoallyl Tubulysin], the concentration for half-maximal inhibition (IC50) turned out to be 2 nM. On the same count and under the same terms, the figure for `CCC(C)[C@H](NC(=O)[C@H]1CCCCN1C)C(=O)N(CO)[C@H](C[C@@H](OC(C)=O)c1nc(C(=O)N[C@@H](Cc2ccc(O)cc2)C[C@H](C)C(=O)O)cs1)C(C)C` (stereo partly drawn) [EC0386] is 42 nM. On the same count and under the same terms, the result for `CCC(C)[C@H](NC(=O)[C@H]1CCCCN1C)C(=O)N(COCCO)[C@H](C[C@@H](OC(C)=O)c1nc(C(=O)N[C@@H](Cc2ccc(O)cc2)C[C@H](C)C(=O)O)cs1)C(C)C` (stereo partly drawn) [EC0346, 2-Hydroxyethoxy Tubulysin] reads 18 nM. For `CCC(C)[C@H](NC(=O)[C@H]1CCCCN1C)C(=O)N(COC)[C@H](C[C@@H](OC(C)=O)c1nc(C(=O)N[C@@H](Cc2ccc(O)cc2)C[C@H](C)C(=O)O)cs1)C(C)C` (stereo partly drawn) [EC0313, Methoxy Tubulysin], the half-maximal inhibitory concentration (IC50) stood at 9 nM.

Turning to `CCC(C)[C@H](NC(=O)[C@H]1CCCCN1C)C(=O)N(COCCC(C)C)[C@H](C[C@@H](OC(C)=O)c1nc(C(=O)N[C@@H](Cc2ccc(O)cc2)C[C@H](C)C(=O)O)cs1)C(C)C` (stereo partly drawn) [EC0356], the IC50 was determined as 12 nM. On the same count and under the same terms, the figure for `CCCSCN(C(=O)[C@@H](NC(=O)[C@H]1CCCCN1C)C(C)CC)[C@H](C[C@@H](OC(C)=O)c1nc(C(=O)N[C@@H](Cc2ccc(O)cc2)C[C@H](C)C(=O)O)cs1)C(C)C` (stereo partly drawn) [EC0623] is 0.48 nM; for `CCC(C)[C@H](NC(=O)[C@H]1CCCCN1C)C(=O)N(CSCCS)[C@H](C[C@@H](OC(C)=O)c1nc(C(=O)N[C@@H](Cc2ccc(O)cc2)C[C@H](C)C(=O)O)cs1)C(C)C` (stereo partly drawn) [EC0374, 2-Mercaptoethylthio Tubulysin] it is 24 nM.

The data set is the same for the next values; noted with them: concentration required to reduce 3H-thymidine incorporation into newly synthesized DNA by 50%; 2 h pulse at 37° C., chase up to 70 h; read-out: Cytotoxicity IC50.
Regarding `CC[C@H](C)[C@H](NC(=O)[C@H]1CCCCN1C)C(=O)N(COC(=O)CC(C)C)[C@H](C[C@@H](OC(C)=O)c1nc(C(=O)N[C@@H](Cc2ccc(O)cc2)C[C@H](C)C(=O)O)cs1)C(C)C` [Tubulysin A, reference compound], the half-maximal inhibitory concentration (IC50) is 2 nM. Still for that read-out and setting: the figure for Tubulysin B [reference compound] is 2.6 nM.

The values are drawn from patent US9745341B2, “Tubulysins and processes for preparing” (priority 2007, dated 2017).
